This experiment has as its target B. subtilis DAPAS (Bs-DAPAS) (Bacillus subtilis, UniProt P53555). Put plainly: X-ray crystal structure, […] Å. The format is binding. Particulars: active site.

Sequence of B. subtilis DAPAS (Bs-DAPAS) (P53555 whole entry, looked up): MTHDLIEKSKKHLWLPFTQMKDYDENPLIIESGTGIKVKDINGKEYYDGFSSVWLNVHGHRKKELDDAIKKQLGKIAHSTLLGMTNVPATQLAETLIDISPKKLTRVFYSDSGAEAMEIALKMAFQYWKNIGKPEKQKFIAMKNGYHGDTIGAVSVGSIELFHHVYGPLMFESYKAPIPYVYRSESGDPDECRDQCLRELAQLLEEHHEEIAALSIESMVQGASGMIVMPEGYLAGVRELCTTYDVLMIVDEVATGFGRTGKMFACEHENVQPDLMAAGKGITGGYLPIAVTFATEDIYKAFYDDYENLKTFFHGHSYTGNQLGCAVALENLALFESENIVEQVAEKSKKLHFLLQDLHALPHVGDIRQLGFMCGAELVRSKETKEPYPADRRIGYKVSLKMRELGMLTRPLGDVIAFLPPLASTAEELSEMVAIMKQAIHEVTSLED

Take `Cc1ncc(COP(=O)(O)O)c(C=O)c1O` [PLP]: the “X-ray crystal structure, 1.9 Å (cocrystallization, 1 mM PLP)” value is on record as “the crystal structure of the B. subtilis DAPAS apoprotein, its PLP-bound complex”.

For the origin of these results see paper PMC3503319 (Biochemistry, 2010).
